# Source: paper PMC4503722, “Novel Phenotypic Outcomes Identified for a Public Collection of Approved Drugs from a Publicly Accessible Panel of Assays” (PLoS ONE, 2015)
# Read-outs that look alike come from different tables or passages of the source.
# What was measured:
# [1] = test system: INS-1E cells; assay: cells; type: cell-based, rat; details: 5 mM glucose; for 5mMGluc_INS1E SecretionMod IC50/EC50: assay number 8;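 on all read-outs here: secreted insulin quantified by homogeneous immunoassay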
# [2] = test system: NCI-H716 cells; assay: cells; type: cell-based, Human; details: for hNCI-H716 GLP1 Secretion IC50/EC50: assay number 12
# [3] = test system: STC-1 cell line; type: cell-based, mouse; details: for mSTC-1 GLP1 Secretion IC50/EC50: assay number 13
# [4] = test system: endothelial tube formation in co-cultures of ECFCs and ADSCs treated with VEGF; assay: cells; type: cell-based, human
# [5] = test system: ECFC/ADSC co-culture cell nuclei number
# [6] = test system: DLD-1; assay: cells; type: cell-based; details: for Basal_Viability ATP DLD-1 IC50/EC50: assay number 23
# [7] = test system: SW480; assay: cells; type: cell-based; details: for Basal_Viability ATP SW480 IC50/EC50: assay number 24
# [8] = test system: HCT116; assay: cells; type: cell-based; details: for Basal_Viability ATP HCT116 IC50/EC50: assay number 25, basal
# [9] = test system: HCT116 cells treated with a GSK3β inhibitor; assay: cells; type: cell-based; details: for GSK3b inh pretreated_Viability ATP HCT116 IC50/EC50: assay number 26, GSK3b inhibitor pretreated
# [10] = test system: Colo320; assay: cells; type: cell-based; details: for Basal_Viability ATP Colo 320 IC50/EC50: assay number 27
# [11] = test system: HT-29; assay: cells; type: cell-based; details: for Basal_Viability ATP HT-29 IC50/EC50: assay number 28
# [12] = test system: RKO; assay: cells; type: cell-based; details: for Basal_Viability ATP RKO IC50/EC50: assay number 29
# [13] = test system: SNU-C1; assay: cells; type: cell-based; details: for Basal_Viability ATP SNU-C1 IC50/EC50: assay number 30
structure (smiles),measurement,setting,value
CCOC(=O)c1ccccc1O [NCGC00181161-03],"IC50/EC50, 5mMGluc_INS1E SecretionMod (assay number 8)",[1],> 33.33 µM
same,"IC50/EC50, hNCI-H716 GLP1 Secretion (assay number 12)",[2]; concentration response,> 40 µM
same,"IC50/EC50, mSTC-1 GLP1 Secretion (assay number 13)",[3]; concentration response,> 40 µM
Fc1cc(Br)ccc1CBr [NCGC00253679-01],5mMGluc_INS1E SecretionMod IC50/EC50,[1],> 33.33 µM
same,hNCI-H716 GLP1 Secretion IC50/EC50,[2],> 40 µM
same,mSTC-1 GLP1 Secretion IC50/EC50,[3],> 40 µM
Cn1cc([S+](C)[O-])c(=O)c2ccc(F)cc21 (stereo not drawn) [NCGC00183849-01],VEGF_ADSC\ECFC Angio CD31 TubeArea IC50/EC50,[4],> 10 µM
same,5mMGluc_INS1E SecretionMod IC50/EC50,[1],> 33.33 µM
same,hNCI-H716 GLP1 Secretion IC50/EC50,[2],> 40 µM
same,mSTC-1 GLP1 Secretion IC50/EC50,[3],> 40 µM
same,VEGF_ADSC\ECFC Angio Hoechst NucArea IC50/EC50,[5],> 10 µM
COC(=O)C(Cl)C(=O)OC [NCGC00249607-02],VEGF_ADSC\ECFC Angio CD31 TubeArea IC50/EC50,[4],> 10 µM
same,5mMGluc_INS1E SecretionMod IC50/EC50,[1],> 33.33 µM
same,hNCI-H716 GLP1 Secretion IC50/EC50,[2],> 40 µM
same,mSTC-1 GLP1 Secretion IC50/EC50,[3],8.3651 µM
same,VEGF_ADSC\ECFC Angio Hoechst NucArea IC50/EC50,[5],> 10 µM
CC(C)(C)CC(C)(C)c1ccc(O)c(Cc2ccc(Cl)cc2Cl)c1 [NCGC00095016-05],5mMGluc_INS1E SecretionMod IC50/EC50,[1],> 33.33 µM
same,hNCI-H716 GLP1 Secretion IC50/EC50,[2],9.073 µM
same,mSTC-1 GLP1 Secretion IC50/EC50,[3],0.5436 µM
CN1CCN(CCCN2c3ccccc3Sc3ccc(C(F)(F)F)cc32)CC1.Cl.Cl [NCGC00186653-01],"IC50/EC50, VEGF_ADSC\ECFC Angio CD31 TubeArea (assay number 2)",[4],> 10 µM
same,"IC50/EC50, hNCI-H716 GLP1 Secretion (assay number 12)",[2],> 40 µM
same,"IC50/EC50, mSTC-1 GLP1 Secretion (assay number 13)",[3],> 40 µM
same,"IC50/EC50, Basal_Viability ATP DLD-1 (assay number 23)",[6],7.3544 µM
same,"IC50/EC50, Basal_Viability ATP SW480 (assay number 24)",[7],2.723 µM
same,"IC50/EC50, Basal_Viability ATP HCT116 (assay number 25)",[8],7.225 µM
same,"IC50/EC50, GSK3b inh pretreated_Viability ATP HCT116 (assay number 26)",[9],3.234 µM
same,"IC50/EC50, Basal_Viability ATP Colo 320 (assay number 27)",[10],2.3611 µM
same,"IC50/EC50, Basal_Viability ATP HT-29 (assay number 28)",[11],2.8136 µM
same,"IC50/EC50, Basal_Viability ATP RKO (assay number 29)",[12],0.5653 µM
same,"IC50/EC50, Basal_Viability ATP SNU-C1 (assay number 30)",[13],2.6302 µM
same,"IC50/EC50, VEGF_ADSC\ECFC Angio Hoechst NucArea (assay number 3)",[5],> 10 µM
C[C@@H]1CN(CCCn2c3ccccc3c3ccccc32)C[C@H](C)N1 [NCGC00025187-02],hNCI-H716 GLP1 Secretion IC50/EC50,[2],6.3711 µM
same,mSTC-1 GLP1 Secretion IC50/EC50,[3],> 40 µM
same,Basal_Viability ATP DLD-1 IC50/EC50,[6]; basal,9.7994 µM
same,Basal_Viability ATP SW480 IC50/EC50,[7]; basal,2.353 µM
same,Basal_Viability ATP HCT116 IC50/EC50,[8],10.5492 µM
same,GSK3b inh pretreated_Viability ATP HCT116 IC50/EC50,[9],3.848 µM
same,Basal_Viability ATP Colo 320 IC50/EC50,[10]; basal,15.9001 µM
same,Basal_Viability ATP HT-29 IC50/EC50,[11]; basal,4.021 µM
same,Basal_Viability ATP RKO IC50/EC50,[12]; basal,2.184 µM
same,Basal_Viability ATP SNU-C1 IC50/EC50,[13]; basal,6.023 µM
O=C1Nc2ccc(Cl)cc2[C@@](C#CC2CC2)(C(F)(F)F)O1 [NCGC00159337-04],5mMGluc_INS1E SecretionMod IC50/EC50,[1],3.8674 µM
same,hNCI-H716 GLP1 Secretion IC50/EC50,[2],21.246 µM
same,mSTC-1 GLP1 Secretion IC50/EC50,[3],2.476 µM
FC(F)(F)C(F)(F)C(F)(F)C(F)(F)C(F)(F)C(F)(F)C(F)(F)C(F)(F)Br [NCGC00166217-02],5mMGluc_INS1E SecretionMod IC50/EC50,[1],> 33.33 µM
same,hNCI-H716 GLP1 Secretion IC50/EC50,[2],> 40 µM
same,mSTC-1 GLP1 Secretion IC50/EC50,[3],> 40 µM
Clc1ccc(C(Cn2ccnc2)OCc2c(Cl)cccc2Cl)c(Cl)c1 (stereo not drawn) [NCGC00179642-03],hNCI-H716 GLP1 Secretion IC50/EC50,[2],> 40 µM
same,mSTC-1 GLP1 Secretion IC50/EC50,[3],> 40 µM
same,Basal_Viability ATP DLD-1 IC50/EC50,[6],2.3554 µM
same,Basal_Viability ATP SW480 IC50/EC50,[7],2.6011 µM
same,Basal_Viability ATP HCT116 IC50/EC50,[8],1.5939 µM
same,GSK3b inh pretreated_Viability ATP HCT116 IC50/EC50,[9],1.3984 µM
same,Basal_Viability ATP Colo 320 IC50/EC50,[10],1.8168 µM
same,Basal_Viability ATP HT-29 IC50/EC50,[11],5.0032 µM
same,Basal_Viability ATP RKO IC50/EC50,[12],4.0107 µM
same,Basal_Viability ATP SNU-C1 IC50/EC50,[13],0.8861 µM
